Results: article PMC4035429 (Neuroscience, 2014)
Blank lines part the entries; values can stand above or below the substance they belong to.

Key:
LRP1 [1] = molecular target: LRP1 (Rattus norvegicus, UniProt G3V928); test: Aβ efflux through Z310 monolayer with LRP1 inhibition; format: cell-based; conditions: mean±SD
LRP1 [2] = test: LRP1 knockdown efficiency in Z310 cells by Western blot; format: cell-based, rat; conditions: 10nM siRNA, LRP1 to β-actin ratio
Aβ = conditions: ref Kanekiyo and Bu, 2009; cited from earlier work
[3] = LRP1 knockdown by siRNA plus 10mg/ml IVIG, p<0.001, n=3

Sequence of LRP1 (Rattus norvegicus, UniProt G3V928) (G3V928 20-4545): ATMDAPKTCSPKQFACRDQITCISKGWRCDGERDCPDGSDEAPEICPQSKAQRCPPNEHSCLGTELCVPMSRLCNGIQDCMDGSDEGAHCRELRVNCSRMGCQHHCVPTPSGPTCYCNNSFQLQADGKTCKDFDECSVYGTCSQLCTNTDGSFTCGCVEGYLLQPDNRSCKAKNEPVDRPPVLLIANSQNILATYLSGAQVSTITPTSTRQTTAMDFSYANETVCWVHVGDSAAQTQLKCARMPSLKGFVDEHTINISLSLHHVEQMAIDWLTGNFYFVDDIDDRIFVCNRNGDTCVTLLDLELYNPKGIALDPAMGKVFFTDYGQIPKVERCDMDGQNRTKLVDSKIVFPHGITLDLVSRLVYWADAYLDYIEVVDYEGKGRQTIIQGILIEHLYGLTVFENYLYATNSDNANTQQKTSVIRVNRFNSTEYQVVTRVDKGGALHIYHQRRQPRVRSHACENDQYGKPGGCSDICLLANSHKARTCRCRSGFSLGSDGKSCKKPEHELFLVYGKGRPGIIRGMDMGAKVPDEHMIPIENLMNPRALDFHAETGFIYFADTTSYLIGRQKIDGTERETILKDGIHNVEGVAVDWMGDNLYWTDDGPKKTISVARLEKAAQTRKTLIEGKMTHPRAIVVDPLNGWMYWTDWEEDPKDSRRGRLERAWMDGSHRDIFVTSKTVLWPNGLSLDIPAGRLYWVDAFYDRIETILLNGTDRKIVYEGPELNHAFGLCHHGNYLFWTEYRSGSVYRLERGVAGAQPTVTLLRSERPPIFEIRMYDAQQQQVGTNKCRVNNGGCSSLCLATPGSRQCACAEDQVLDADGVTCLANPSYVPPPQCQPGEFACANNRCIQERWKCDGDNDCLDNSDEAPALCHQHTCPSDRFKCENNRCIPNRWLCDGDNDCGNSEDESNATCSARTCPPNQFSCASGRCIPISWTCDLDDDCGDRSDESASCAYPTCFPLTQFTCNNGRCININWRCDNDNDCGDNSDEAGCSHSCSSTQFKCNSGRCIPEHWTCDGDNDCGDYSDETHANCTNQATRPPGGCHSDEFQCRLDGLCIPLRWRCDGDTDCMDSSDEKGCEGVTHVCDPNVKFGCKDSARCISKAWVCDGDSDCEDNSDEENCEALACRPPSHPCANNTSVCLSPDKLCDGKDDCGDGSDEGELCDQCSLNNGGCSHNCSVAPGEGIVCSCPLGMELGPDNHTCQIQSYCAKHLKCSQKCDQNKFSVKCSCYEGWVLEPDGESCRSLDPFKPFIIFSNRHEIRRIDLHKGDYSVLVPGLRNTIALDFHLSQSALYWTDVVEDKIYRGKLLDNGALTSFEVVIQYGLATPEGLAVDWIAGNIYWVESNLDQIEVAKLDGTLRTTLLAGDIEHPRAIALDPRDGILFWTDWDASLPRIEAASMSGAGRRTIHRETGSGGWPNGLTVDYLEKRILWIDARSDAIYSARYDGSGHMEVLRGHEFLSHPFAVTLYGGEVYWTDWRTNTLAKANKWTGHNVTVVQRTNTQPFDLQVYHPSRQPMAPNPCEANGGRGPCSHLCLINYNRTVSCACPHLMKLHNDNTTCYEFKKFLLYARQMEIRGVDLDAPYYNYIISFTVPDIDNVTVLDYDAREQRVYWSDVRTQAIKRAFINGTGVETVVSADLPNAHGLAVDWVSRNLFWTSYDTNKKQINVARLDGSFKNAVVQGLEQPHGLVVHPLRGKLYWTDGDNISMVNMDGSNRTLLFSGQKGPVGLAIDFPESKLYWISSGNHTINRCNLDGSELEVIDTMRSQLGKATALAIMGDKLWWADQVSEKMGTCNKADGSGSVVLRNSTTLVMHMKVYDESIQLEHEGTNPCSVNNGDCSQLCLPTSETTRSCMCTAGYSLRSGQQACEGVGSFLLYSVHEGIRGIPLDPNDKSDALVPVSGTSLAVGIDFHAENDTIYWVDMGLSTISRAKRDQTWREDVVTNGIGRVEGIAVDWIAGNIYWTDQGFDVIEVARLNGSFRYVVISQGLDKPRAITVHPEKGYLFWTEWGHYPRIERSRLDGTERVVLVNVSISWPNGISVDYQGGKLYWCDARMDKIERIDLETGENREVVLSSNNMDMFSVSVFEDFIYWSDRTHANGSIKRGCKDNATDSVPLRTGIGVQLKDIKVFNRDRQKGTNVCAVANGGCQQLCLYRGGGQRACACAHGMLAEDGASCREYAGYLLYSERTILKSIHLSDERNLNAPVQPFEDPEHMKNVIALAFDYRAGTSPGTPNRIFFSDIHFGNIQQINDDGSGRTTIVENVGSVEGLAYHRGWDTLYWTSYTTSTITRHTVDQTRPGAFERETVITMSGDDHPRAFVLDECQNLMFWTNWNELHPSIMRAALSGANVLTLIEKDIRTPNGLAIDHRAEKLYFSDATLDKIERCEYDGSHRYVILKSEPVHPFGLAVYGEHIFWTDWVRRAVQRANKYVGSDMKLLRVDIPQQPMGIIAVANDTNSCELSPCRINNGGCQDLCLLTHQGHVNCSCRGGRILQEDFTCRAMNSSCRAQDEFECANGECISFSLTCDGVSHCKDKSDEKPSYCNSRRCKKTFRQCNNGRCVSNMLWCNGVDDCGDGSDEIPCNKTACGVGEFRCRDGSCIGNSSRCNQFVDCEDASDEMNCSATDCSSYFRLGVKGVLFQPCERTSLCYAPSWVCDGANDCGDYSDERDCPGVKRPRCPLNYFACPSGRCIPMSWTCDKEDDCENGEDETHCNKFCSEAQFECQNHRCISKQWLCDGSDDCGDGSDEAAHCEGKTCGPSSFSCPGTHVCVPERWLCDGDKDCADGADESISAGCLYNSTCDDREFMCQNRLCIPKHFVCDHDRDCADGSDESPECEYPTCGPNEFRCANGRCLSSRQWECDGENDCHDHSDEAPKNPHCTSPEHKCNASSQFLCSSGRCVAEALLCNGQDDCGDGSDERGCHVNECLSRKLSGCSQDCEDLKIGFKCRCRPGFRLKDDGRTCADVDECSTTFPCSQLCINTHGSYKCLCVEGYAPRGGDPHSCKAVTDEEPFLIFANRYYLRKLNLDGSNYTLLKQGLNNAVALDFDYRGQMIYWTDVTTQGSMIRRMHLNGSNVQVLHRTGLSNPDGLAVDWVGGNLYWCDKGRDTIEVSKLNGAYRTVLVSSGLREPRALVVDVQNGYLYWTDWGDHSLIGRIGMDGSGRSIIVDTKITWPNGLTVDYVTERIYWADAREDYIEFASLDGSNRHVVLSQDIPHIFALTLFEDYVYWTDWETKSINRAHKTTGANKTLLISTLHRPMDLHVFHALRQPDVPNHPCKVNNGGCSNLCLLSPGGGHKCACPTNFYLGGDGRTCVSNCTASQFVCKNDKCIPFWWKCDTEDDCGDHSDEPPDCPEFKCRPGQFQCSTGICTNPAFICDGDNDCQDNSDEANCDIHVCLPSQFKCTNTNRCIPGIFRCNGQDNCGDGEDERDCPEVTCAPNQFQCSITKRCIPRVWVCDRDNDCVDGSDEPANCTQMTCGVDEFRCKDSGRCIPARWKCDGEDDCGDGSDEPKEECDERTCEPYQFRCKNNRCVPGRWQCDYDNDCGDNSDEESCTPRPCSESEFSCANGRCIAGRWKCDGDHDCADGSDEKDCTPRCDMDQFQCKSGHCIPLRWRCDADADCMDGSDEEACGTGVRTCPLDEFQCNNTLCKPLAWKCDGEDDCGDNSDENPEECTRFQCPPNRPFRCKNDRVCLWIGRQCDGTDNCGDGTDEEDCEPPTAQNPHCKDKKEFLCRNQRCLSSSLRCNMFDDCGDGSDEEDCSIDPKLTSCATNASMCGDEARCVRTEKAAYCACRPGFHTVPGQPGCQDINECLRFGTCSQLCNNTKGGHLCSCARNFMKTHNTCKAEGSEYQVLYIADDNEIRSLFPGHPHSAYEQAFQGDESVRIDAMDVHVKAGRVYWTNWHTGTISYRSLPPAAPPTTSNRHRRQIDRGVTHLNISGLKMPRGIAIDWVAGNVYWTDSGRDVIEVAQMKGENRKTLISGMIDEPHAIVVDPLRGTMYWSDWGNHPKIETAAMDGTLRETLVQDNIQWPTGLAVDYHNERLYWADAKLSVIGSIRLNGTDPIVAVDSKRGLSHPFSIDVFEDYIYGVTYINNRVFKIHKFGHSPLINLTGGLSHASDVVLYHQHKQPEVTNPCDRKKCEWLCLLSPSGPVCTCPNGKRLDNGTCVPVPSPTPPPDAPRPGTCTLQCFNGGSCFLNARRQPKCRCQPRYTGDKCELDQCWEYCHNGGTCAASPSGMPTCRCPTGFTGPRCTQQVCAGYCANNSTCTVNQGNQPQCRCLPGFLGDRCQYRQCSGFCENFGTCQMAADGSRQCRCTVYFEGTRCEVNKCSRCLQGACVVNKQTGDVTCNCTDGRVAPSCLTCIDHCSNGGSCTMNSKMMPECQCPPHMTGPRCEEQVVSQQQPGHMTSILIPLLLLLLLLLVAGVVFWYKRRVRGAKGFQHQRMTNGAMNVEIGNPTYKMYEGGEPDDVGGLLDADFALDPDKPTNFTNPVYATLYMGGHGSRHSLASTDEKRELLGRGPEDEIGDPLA

Substance: Aβ1-40: beta-amyloid 1-40 peptide (gift from Eli Lilly) added to the inner chamber at 1 μM
change of TEER between treated and untreated samples (Z310 cells): little change

Substance: LRP1 siRNA: siRNA from Sigma-Aldrich; sense 5′ -CCUAUCUUUGAGAUCCGAA-3′, antisense 5′ -UUCGGAUCUCAAAGAUAGG-3′ (chemistry not given here)
IVIG-induced Aβ efflux from inner chambers after 1 hr Aβ added (LRP1 [1]; [3]): 1.1 ± 0.28 ng/mL
IVIG-induced Aβ efflux from inner chambers after 3 hrs Aβ added (LRP1 [1]; [3]): 2.86 ± 0.86 ng/mL
Aβ concentration in outer chamber 1 hr after Aβ added (LRP1 [1]; LRP1 knockdown by siRNA, without IVIG, 1 μM Aβ, scrambled siRNA control 0.28±0.08, p<0.05, n=3): 0.02 ± 0.004 ng/mL
Aβ concentration in outer chamber 3 hrs after Aβ added (LRP1 [1]; LRP1 knockdown by siRNA, without IVIG, 1 μM Aβ, scrambled siRNA control 4.0±0.31, p<0.05, n=3): 1.17 ± 0.38 ng/mL
reduction of LRP1 at protein expression levels as compared to the scrambled siRNA controls (LRP1 [2]): 84.7%

IVIG-induced Aβ efflux from inner chambers at 1 hr (LRP1 [1]; 100 nM RAP plus 10mg/ml IVIG, IVIG alone 2.52±0.22, p<0.001, n=5): 1.77 ± 0.1 ng/mL
IVIG-induced Aβ efflux from inner chambers at 3 hrs (LRP1 [1]; 100 nM RAP plus 10mg/ml IVIG, IVIG alone 7.61±0.91, p<0.001, n=5): 5.41 ± 0.92 ng/mL
Substance: RAP: recombinant receptor-associated protein (EMD Millipore), a functional inhibitor of LRP1
concentration at which RAP could bind Aβ (Aβ): above 500 nM
